Measurements from patent US20230085307A1, “PYRIDAZINONE COMPOUND AND HERBICIDE” (NISSAN CHEMICAL CORPORATION, priority 2019, published 2023).

Key:
late watergrass = experiment: Test Example 2: herbicidal activity, application during weed generation under submerged conditions (Table 17, symbol A); assay type: in vivo, late watergrass (Echinochloa oryzicola); details: AAH 320 g/ha; application during weed generation, submerged conditions
How it was run: (§1)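 Mixed weed seedlings in alluvial soil under a 4 cm water layer, greenhouse-grown at 25–30° C. Compound given as a diluted emulsion into the floodwater at the 1–2 leaf stage; response graded after three weeks.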

barnyard grass = experiment: Test Example 5: herbicidal effect by foliage application, plastic box (Table 20, symbol H); assay type: in vivo, barnyard grass (Echinochloa crus-galli); details: foliage application, 320 g/ha, three weeks after application
How it was run: (§2)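 Sow seeds spot-wise in sterilized diluvial soil; cover with ~1.5 cm soil. Grow 14 days in greenhouse, 25° C. to 30° C. Spray foliage with emulsion diluted to predetermined amount. Rate effect after 3 weeks.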

redroot pigweed [1] = experiment: Test Example 5: herbicidal effect by foliage application, plastic box (Table 20, symbol N); assay type: in vivo, redroot pigweed (Amaranthus retroflexus); details: foliage application, 320 g/ha, three weeks after application
How it was run: as §2

Japanese bulrush [2] = experiment: Test Example 1: herbicidal activity, application before weed generation under submerged conditions (Table 16, symbol B); assay type: in vivo, Japanese bulrush (Schoenoplectus juncoides); details: amount of applied herbicide 320 g/ha
How it was run: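 Submerged Wagner pots (alluvial soil, 4 cm water) sown with weed seeds and planted with 2.5-leaf rice seedlings; emulsifiable concentrate diluted in water applied to water surface on sowing day. Held in greenhouse at 25-30 °C; injury scored 0-5 by herbicidal rate after three weeks.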

green foxtail = experiment: Test Example 4: herbicidal effect by soil treatment (Table 19, symbol G); assay type: in vivo, green foxtail (Setaria viridis); details: amount of applied herbicide 320 g/ha
How it was run: (§3)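 Soil-surface application: an emulsion agent diluted with water to the predetermined dose is sprayed uniformly over seeds lying under roughly 1.5 cm of sterilized diluvial soil. Boxes stay in a greenhouse at 25° C. to 30° C. Three weeks later, each species is graded on previously defined criteria.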

velvetleaf = experiment: Test Example 4: herbicidal effect by soil treatment (Table 19, symbol M); assay type: in vivo, velvetleaf (Abutilon theophrasti); details: amount of applied herbicide 320 g/ha
How it was run: as §3

southern crabgrass = experiment: Test Example 4: herbicidal effect by soil treatment (Table 19, symbol F); assay type: in vivo, southern crabgrass (Digitaria ciliaris); details: amount of applied herbicide 320 g/ha
How it was run: as §3

blackgrass [3] = experiment: Test Example 5: herbicidal effect by foliage application, plastic box (Table 20, symbol J); assay type: in vivo, blackgrass (Alopecurus myosuroides); details: foliage application, 320 g/ha, three weeks after application
How it was run: as §2

wild oat [4] = experiment: Test Example 5: herbicidal effect by foliage application, plastic box (Table 20, symbol I); assay type: in vivo, wild oat (Avena fatua); details: foliage application, 320 g/ha, three weeks after application
How it was run: as §2

chickweed [5] = experiment: Test Example 4: herbicidal effect by soil treatment (Table 19, symbol P); assay type: in vivo, common chickweed (Stellaria media); details: amount of applied herbicide 320 g/ha
How it was run: as §3

oval-leafed pondweed = experiment: Test Example 2: herbicidal activity, application during weed generation under submerged conditions (Table 17, symbol C); assay type: in vivo, oval-leafed pondweed (Monochoria vaginalis); details: AAH 320 g/ha; application during weed generation, submerged conditions
How it was run: as §1

rice flat sedge = experiment: Test Example 3: herbicidal effect by foliage application, Wagner pot (Table 18, symbol E); assay type: in vivo, rice flat sedge (Cyperus iria); details: for herbicidal effect on rice flat sedge (E): 320 g/ha; for Herbicidal effect on E (rice flat sedge), foliage application: amount of applied herbicide 320 g/ha
How it was run: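 Plants were sown in alluvial soil held under 0.1–0.5 cm standing water and grown 14 days in a greenhouse at 25–30 °C. An emulsifiable formulation, water-diluted to the set dose, was then sprayed onto the foliage, and effects were scored three weeks later using previously defined criteria.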

Japanese bulrush [6] = experiment: Test Example 2: herbicidal activity, application during weed generation under submerged conditions (Table 17, symbol B); assay type: in vivo, Japanese bulrush (Schoenoplectus juncoides); details: AAH 320 g/ha; application during weed generation, submerged conditions
How it was run: as §1

chickweed [7] = experiment: Test Example 5: herbicidal effect by foliage application, plastic box (Table 20, symbol P); assay type: in vivo, common chickweed (Stellaria media); details: foliage application, 320 g/ha, three weeks after application
How it was run: as §2

wild oat [8] = experiment: Test Example 4: herbicidal effect by soil treatment (Table 19, symbol I); assay type: in vivo, wild oat (Avena fatua); details: amount of applied herbicide 320 g/ha
How it was run: as §3

redroot pigweed [9] = experiment: Test Example 4: herbicidal effect by soil treatment (Table 19, symbol N); assay type: in vivo, redroot pigweed (Amaranthus retroflexus); details: amount of applied herbicide 320 g/ha
How it was run: as §3

blackgrass [10] = experiment: Test Example 4: herbicidal effect by soil treatment (Table 19, symbol J); assay type: in vivo, blackgrass (Alopecurus myosuroides); details: amount of applied herbicide 320 g/ha
How it was run: as §3

| SMILES | herbicidal effect rating, A: late watergrass (late watergrass) | Herbicidal effect, B: Japanese bulrush (Japanese bulrush [2]) | G: green foxtail, herbicidal effect grade (green foxtail) | M: velvetleaf, herbicidal effect grade (velvetleaf) | F: southern crabgrass, herbicidal effect grade (southern crabgrass) | P: chickweed, herbicidal effect grade (chickweed [5]) | herbicidal effect rating, C: oval-leafed pondweed (oval-leafed pondweed) | herbicidal effect on rice flat sedge (E) (rice flat sedge) | herbicidal effect rating, B: Japanese bulrush (Japanese bulrush [6]) | I: wild oat, herbicidal effect grade (wild oat [8]) | N: redroot pigweed, herbicidal effect grade (redroot pigweed [9]) | herbicidal effect on barnyard grass (H) (barnyard grass) | J: blackgrass, herbicidal effect grade (blackgrass [10]) | herbicidal effect on blackgrass (J) (blackgrass [3]) | herbicidal effect on wild oat (I) (wild oat [4]) | Herbicidal effect on E (rice flat sedge), foliage application (rice flat sedge) | further results |
| --- | --- | --- | --- | --- | --- | --- | --- | --- | --- | --- | --- | --- | --- | --- | --- | --- | --- |
| C=CCOc1ccc2c(-c3c(O)c(C)nn(C)c3=O)c(-c3ccccc3OC)sc2c1 [3-111] | 4 (Herbicidal rate of 70% or more and less than 90%) | 5 (Herbicidal rate of 90% or more (almost completely withered)) | 5 (Herbicidal rate of 90% or more (almost completely withered)) | 3 (Herbicidal rate of 40% or more and less than 70%) | 5 (Herbicidal rate of 90% or more (almost completely withered)) | 3 (Herbicidal rate of 40% or more and less than 70%) | 3 (Herbicidal rate of 40% or more and less than 70%) | 5 (Herbicidal rate of 90% or more (almost completely withered)) | 3 (Herbicidal rate of 40% or more and less than 70%) | 3 (Herbicidal rate of 40% or more and less than 70%) | 5 (Herbicidal rate of 90% or more (almost completely withered)) | – | – | – | – | – | H: barnyard grass, herbicidal effect grade (barnyard grass): 5 (Herbicidal rate of 90% or more (almost completely withered)); N: redroot pigweed, herbicidal effect grade (redroot pigweed [1]): 5 (Herbicidal rate of 90% or more (almost completely withered)); J: blackgrass, herbicidal effect grade (blackgrass [3]): 5 (Herbicidal rate of 90% or more (almost completely withered)); I: wild oat, herbicidal effect grade (wild oat [4]): 4 (Herbicidal rate of 70% or more and less than 90%); P: chickweed, herbicidal effect grade (chickweed [7]): 5 (Herbicidal rate of 90% or more (almost completely withered)) |
| COc1ccccc1-c1sc2cc(C)c(C)cc2c1-c1c(O)c(C)nn(C)c1=O [5-090] | 0 (Herbicidal rate of 5% or less (almost no effect)) | 3 (Herbicidal rate of 40% or more and less than 70%) | 0 (Herbicidal rate of 5% or less (almost no effect)) | 0 (Herbicidal rate of 5% or less (almost no effect)) | 0 (Herbicidal rate of 5% or less (almost no effect)) | 1 (Herbicidal rate of 5% or more and less than 20%) | 0 (Herbicidal rate of 5% or less (almost no effect)) | 5 (Herbicidal rate of 90% or more (almost completely withered)) | 2 (Herbicidal rate of 20% or more and less than 40%) | 0 (Herbicidal rate of 5% or less (almost no effect)) | 0 (Herbicidal rate of 5% or less (almost no effect)) | 4 (Herbicidal rate of 70% or more and less than 90%) | 0 (Herbicidal rate of 5% or less (almost no effect)) | 4 (Herbicidal rate of 70% or more and less than 90%) | 0 (Herbicidal rate of 5% or less (almost no effect)) | – | – |
| CCCC(=O)Oc1c(C)nn(C)c(=O)c1-c1c(-c2ccccc2OCC)sc2cc(C)c(C)cc12 [5-095] | 4 (Herbicidal rate of 70% or more and less than 90%) | 4 (Herbicidal rate of 70% or more and less than 90%) | 0 (Herbicidal rate of 5% or less (almost no effect)) | 0 (Herbicidal rate of 5% or less (almost no effect)) | 0 (Herbicidal rate of 5% or less (almost no effect)) | 3 (Herbicidal rate of 40% or more and less than 70%) | 4 (Herbicidal rate of 70% or more and less than 90%) | 4 (Herbicidal rate of 70% or more and less than 90%) | 4 (Herbicidal rate of 70% or more and less than 90%) | 0 (Herbicidal rate of 5% or less (almost no effect)) | 0 (Herbicidal rate of 5% or less (almost no effect)) | 4 (Herbicidal rate of 70% or more and less than 90%) | 0 (Herbicidal rate of 5% or less (almost no effect)) | 4 (Herbicidal rate of 70% or more and less than 90%) | 3 (Herbicidal rate of 40% or more and less than 70%) | – | – |
| CSc1ccc(-c2oc3ccc(F)cc3c2-c2c(O)c(C)nn(C)c2=O)cc1 [9-037] | 0 (Herbicidal rate of 5% or less (almost no effect)) | 0 (Herbicidal rate of 5% or less (almost no effect)) | 1 (Herbicidal rate of 5% or more and less than 20%) | 3 (Herbicidal rate of 40% or more and less than 70%) | 4 (Herbicidal rate of 70% or more and less than 90%) | – | 2 (Herbicidal rate of 20% or more and less than 40%) | – | 2 (Herbicidal rate of 20% or more and less than 40%) | 0 (Herbicidal rate of 5% or less (almost no effect)) | 5 (Herbicidal rate of 90% or more (almost completely withered)) | 4 (Herbicidal rate of 70% or more and less than 90%) | 0 (Herbicidal rate of 5% or less (almost no effect)) | 2 (Herbicidal rate of 20% or more and less than 40%) | 5 (Herbicidal rate of 90% or more (almost completely withered)) | 5 (Herbicidal rate of 90% or more (almost completely withered)) | – |
| COc1ccccc1-c1sc2c(Cl)c(OC)ccc2c1-c1c(O)c(C)nn(C)c1=O [Compound No. 7-001, 4-(7-chloro-6-methoxy-2-(2-methoxyphenyl)benzo[b]thiophen-3-yl)-5-hydroxy-2,6-dimeth ylpyridazin-3-(2H)-one] | 3 (Herbicidal rate of 40% or more and less than 70%) | 3 (Herbicidal rate of 40% or more and less than 70%) | 0 (Herbicidal rate of 5% or less (almost no effect)) | 3 (Herbicidal rate of 40% or more and less than 70%) | 0 (Herbicidal rate of 5% or less (almost no effect)) | 5 (Herbicidal rate of 90% or more (almost completely withered)) | 3 (Herbicidal rate of 40% or more and less than 70%) | – | 3 (Herbicidal rate of 40% or more and less than 70%) | 0 (Herbicidal rate of 5% or less (almost no effect)) | 5 (Herbicidal rate of 90% or more (almost completely withered)) | 5 (Herbicidal rate of 90% or more (almost completely withered)) | – | 4 (Herbicidal rate of 70% or more and less than 90%) | 0 (Herbicidal rate of 5% or less (almost no effect)) | 4 (Herbicidal rate of 70% or more and less than 90%) | – |
